Source: patent publication US6946447B2, “MDM2-specific antisense oligonucleotides” (Hybridon, Inc., priority 1997, dated 2005)
Like-named read-outs stand apart in the source and are kept apart here.

Assays:
[1] = mice bearing DLD-1 xenografts
LS174T cells = assay: LS174T cell growth by trypan blue viability staining; assay type: cell-based, human; conditions: 72 hr, Lipofectin 7 μg/ml, read-out: IC50, inhibition of tumor cell growth
Text: (§1) Chemicals and Reagents. Cell culture media and phosphate-buffered saline (PBS) were obtained from Sigma Chemical Co. (St. Louis, Mo.). Fetal bovine serum (FBS), antibodies against p53 and p21, Lipofectin, trypsin, penicillin-streptomycin, and trypan blue stain were purchased from GIBCO-BRL (Grand Island, N.Y.). The anti-human-MDM2 monoclonal antibody (Chen L. et al., Proc Natl Acad Sci USA, 95: 195-200, 1998; Chen L. et al., Mol. Med. 5: 21-34, 1999) was kindly provided by J. Chen (Moffitt Cancer Center, Tampa, Fla.). Chemotherapeutic agents adriamycin and 5-fluorouracil (5-FU) were obtained from Sigma. […] The MDM2, p53 and p21 levels in cultured cells were analyzed by using the methods described previously (earlier (Chen L. et al., Proc Natl Acad Sci USA, 95: 195-200, 1998; Chen L. et al., Mol. Med. 5: 21-34, 1999; Wang H. et al., Int J. Oncol. 15: 653-660, 1999). In brief, cell lysate containing identical amounts of total protein were fractionated by SDS-PAGE and transferred to Bio-Rad Trans-Blot nitrocellulose membranes (Bio-Rad Laboratories, Hercules, Calif., USA). The nitrocellulose membrane was then incubated with blocking buffer (PBS containing 0.1% Tween 20 and 5% non-fat milk) for 1 hr at room temperature and washed with the washing buffer (PBS containing 0. […]

[2] = mice bearing LS174T xenografts
MDM2 = conditions: SJSA and JAR cells; cited from earlier work
DLD-1 cells = assay: DLD-1 cell growth by trypan blue viability staining; assay type: cell-based, human; conditions: 72-hr treatment, Lipofectin, read-out: IC50, inhibition of tumor cell growth
Text: as §1

[3] = test system: MDM2, p53 and p21 protein levels in DLD-1 cells; assay: Western blot of MDM2, p53 and p21 in DLD-1 cells; assay type: cell-based, human; conditions: for inhibitory effect on MDM2 expression: Lipofectin
Text: Chemicals and Reagents. Cell culture media and phosphate-buffered saline (PBS) were obtained from Sigma Chemical Co. (St. Louis, Mo.). Fetal bovine serum (FBS), antibodies against p53 and p21, Lipofectin, trypsin, penicillin-streptomycin, and trypan blue stain were purchased from GIBCO-BRL (Grand Island, N.Y.). The anti-human-MDM2 monoclonal antibody (Chen L. et al., Proc Natl Acad Sci USA, 95: 195-200, 1998; Chen L. et al., Mol. Med. 5: 21-34, 1999) was kindly provided by J. Chen (Moffitt Cancer Center, Tampa, Fla.). Chemotherapeutic agents adriamycin and 5-fluorouracil (5-FU) were obtained from Sigma. Natural product topoisomerase I inhibitor 10-hydroxycamptothecin (HCPT) was obtained from the Midwest Co. (Beijing, China) with the purity of the drug being greater than 98% (Zhang R. et al., Cancer Chemother Pharm 41: 257-267, 1998). Cell Culture. The tumor cell lines, LS174T and DLD-1 were obtained from the American Type Culture Collection (Rockville, Md.) and cultured according to their instructions. LS 174T cells were cultured in MEM with 0.1 mM nonessential amino acids and Earle's balanced salt solution containing 10% FBS and DLD-1 cells in RPMI 1640 medium containing 10% FBS. All media included 1% penicillin/streptomycin. […] Cells were incubated with Oligos AS or ASM at various concentrations for 72 hr, in the presence of Lipofectin (7 μg/ml). […] Western Blot Analysis. The MDM2, p53 and p21 levels in cultured cells were analyzed by using the methods described previously (earlier (Chen L. et al., Proc Natl Acad Sci USA, 95: 195-200, 1998; Chen L. et al., Mol. Med. 5: 21-34, 1999; Wang H. et al., Int J. Oncol. 15: 653-660, 1999). In brief, cell lysate containing identical amounts of total protein were fractionated by SDS-PAGE and transferred to Bio-Rad Trans-Blot nitrocellulose membranes (Bio-Rad Laboratories, Hercules, Calif., USA). The nitrocellulose membrane was then incubated with blocking buffer (PBS containing 0.1% Tween 20 and 5% non-fat milk) for 1 hr at room temperature and washed with the washing buffer (PBS containing 0. 1% Tween 20) for 5 min twice. The membrane was incubated with primary (anti-MDM2, anti-p53, or anti-p21) antibody overnight at 4° C. or for 1 hr at room temperature with gentle shaking. The membrane was washed with the washing buffer for 15 min and then twice for 5 min, and then incubated with 1:5000 diluted goat anti-mouse IgG-horse radish peroxidase conjugated antibody (Bio-Rad, Hercules, Calif.) for 1 hr at room temperature. After washing as described above the protein of interest was detected by ECL reagents from Amersham (Arlington Height, Ill.). Results. LS174T Model. In vitro inhibition of MDM2 expression by Oligo AS was shown in a sequence-specific, increasing dose-dependent manner (FIG. 19). […] Control oligonucleotide, Oligo ASM had no effect on MDM2, p53 or p21 protein levels at 500 nM, the highest concentration tested in the study.
Following in vitro combination treatment of Oligos and chemotherapeutic agents HCPT, adriamycin, and 5-FU, the protein levels of MDM2, p53 and p21 were determined in DLD-1 cells. Cells were incubated with 200 nM Oligo in the presence of Lipofectin for 24 hr, followed by addition of various concentrations of chemotherapeutic agents and incubation for an additional 24 hr.

[4] = test system: human colon cancer DLD-1 xenografts; assay: Tumor growth in nude mice bearing DLD-1 xenografts; assay type: in vivo
[5] = test system: MDM2, p53 and p21 protein levels in LS174T cells; assay: Western blot of MDM2, p53 and p21 in LS174T cells; assay type: cell-based, human; conditions: 24 hr, Lipofectin
[6] = test system: human colon cancer LS174T xenografts; assay: Tumor growth in nude mice bearing LS174T xenografts
[7] = day 3, oligo 20, HCPT 3, 5-FU 10 mg/kg/day
[8] = day 6, oligo 20, HCPT 3, 5-FU 10 mg/kg/day
[9] = day 9, oligo 20, HCPT 3, 5-FU 10 mg/kg/day
[10] = day 12, oligo 20, HCPT 3, 5-FU 10 mg/kg/day
[11] = day 15, oligo 20, HCPT 3, 5-FU 10 mg/kg/day

Q: For “Oligo AS: 20-mer mixed-backbone phosphorothioate oligonucleotide with 2′-O-methyl ends, 5′UGACACCTGTTCTCACUCAC-3′; SEQ ID NO:47 (mixed phosphorothioate backbone with 2'-O-methyl ends, pattern not given here)”, which “Survival Rates of Animals” value ([1]; day 3) is on record?
A: Its value is 100%.

Q: What about the “Survival Rates of Animals” value ([1]; day 6) of the same substance?
A: The value was 100%.

Q: What about the “Survival Rates of Animals” value ([1]; day 9) of the same substance?
A: The value was 100%.

Q: What about the “Survival Rates of Animals” value ([1]; day 12) of the same substance?
A: The value was 100%.

Q: And the “Survival Rates of Animals” value ([1]; day 15)?
A: Its value is 100%.

Q: What about the “Survival Rates of Animals” value ([1]; day 18) of the same substance?
A: The value was 100%.

Q: And the “Survival Rates of Animals” value ([1]; day 21)?
A: The value was 100%.

Q: What about the IC50 (LS174T cells) of the same substance?
A: The IC50 was 323 nM.

Q: And the “Survival Rates of Animals” value ([2]; day 3)?
A: The value was 100%.

Q: And the “Survival Rates of Animals” value ([2]; day 6)?
A: The value was 100%.

Q: And the “Survival Rates of Animals” value ([2]; day 9)?
A: Its value is 100%.

Q: And the “Survival Rates of Animals” value ([2]; day 12)?
A: Its value is 100%.

Q: And the “Survival Rates of Animals” value ([2]; day 15)?
A: Its value is 100%.

Q: What about the “Survival Rates of Animals” value ([2]; day 18) of the same substance?
A: The value was 100%.

Q: What about the MDM2 expression (MDM2) of the same substance?
A: Its MDM2 expression is “specifically inhibits MDM2 expression”.

Q: What about the IC50 (DLD-1 cells) of the same substance?
A: The IC50 was 140 nM.

Q: What about the “protein levels of the mutant p53” value [3] of the same substance?
A: The value was “No significant changes”.

Q: What about the “MDM2, p53 and p21 protein levels, oligo pre-treatment then 5-FU” value ([3]; 200 nM Oligo 24 hr, then 5-FU 24 hr) of the same substance?
A: Its value is “MDM2 expression was inhibited, and p21 slightly induced”.

Q: What about the “MDM2 and p21 protein levels, oligo pre-treatment then HCPT” value ([3]; 200 nM Oligo 24 hr, then HCPT 24 hr) of the same substance?
A: The value was “MDM2 expression was inhibited, resulting in significant elevated p21 levels”.

Q: What about the “MDM2 and p21 protein levels, oligo pre-treatment then adriamycin” value ([3]; 200 nM Oligo 24 hr, then adriamycin 24 hr) of the same substance?
A: The value was “MDM2 expression was inhibited, resulting in significant elevated p21 levels”.

Q: What about the “inhibitory effect on MDM2 expression” value ([3]; 200 nM, 24 hr) of the same substance?
A: The value was > 95%.

Q: And the p21 levels ([3]; 100 nm or higher)?
A: The p21 levels was “elevated”.

Q: What about the “inhibitory effect on MDM2 expression” value ([3]; 500 and 1000 nM) of the same substance?
A: Its value is “approximately 80%”.

Q: And the “xenograft pathology (tumor histology)” value [4]?
A: The value was “histologically similar to control tumors except for modest increases in connective tissue with necrotic changes in tumor tissues”.

Q: What about the “effect on in vivo tumor growth” value ([4]; 1 mg/kg/day) of the same substance?
A: Its value is “minimal effects”.

Q: And the “effect on in vivo tumor growth” value ([4]; daily ip doses 1, 10, 20 mg/kg)?
A: The value was “dose-dependent response”.

Q: What about the “Ratio (%) of % T:C with oligo to % T:C without oligo ([2]/[1] or [3]/[1])” value ([4]; day 3) of the same substance?
A: Its value is 77%.

Q: What about the “Growth ratio % T:C” value [4, 7] of the same substance?
A: Its value is 77.3%.

Q: And the “Ratio (%) of % T:C with oligo to % T:C without oligo ([2]/[1] or [3]/[1])” value ([4]; day 6)?
A: The value was 72%.

Q: And the “Growth ratio % T:C” value [4, 8]?
A: The value was 72.0%.

Q: And the “Ratio (%) of % T:C with oligo to % T:C without oligo ([2]/[1] or [3]/[1])” value ([4]; day 9)?
A: The value was 59%.

Q: What about the “Growth ratio % T:C” value [4, 9] of the same substance?
A: The value was 59.2%.

Q: And the “Ratio (%) of % T:C with oligo to % T:C without oligo ([2]/[1] or [3]/[1])” value ([4]; day 12)?
A: Its value is 41%.

Q: And the “Growth ratio % T:C” value [4, 10]?
A: Its value is 41.2%.

Q: What about the “Ratio (%) of % T:C with oligo to % T:C without oligo ([2]/[1] or [3]/[1])” value ([4]; day 15) of the same substance?
A: Its value is 44%.

Q: What about the “Growth ratio % T:C” value [4, 11] of the same substance?
A: The value was 44.4%.

Q: And the “Ratio (%) of % T:C with oligo to % T:C without oligo ([2]/[1] or [3]/[1])” value ([4]; day 18)?
A: The value was 47%.

Q: And the “Growth ratio % T:C” value ([4]; day 18, oligo 20, HCPT 3, 5-FU 10 mg/kg/day)?
A: The value was 46.7%.

Q: What about the “Ratio (%) of % T:C with oligo to % T:C without oligo ([2]/[1] or [3]/[1])” value ([4]; day 21) of the same substance?
A: Its value is 37%.

Q: And the “Growth ratio % T:C” value ([4]; day 21 (end of experiment), oligo 20, HCPT 3, 5-FU 10 mg/kg/day)?
A: Its value is 36.8%.

Q: What about the “inhibition of MDM2 expression” value ([5]; 500 nM) of the same substance?
A: Its value is “greater than 90%”.

Q: What about the “effect on MDM2, p53 and p21 protein levels” value ([5]; up to 500 nM) of the same substance?
A: The value was “p53 and p21 levels elevated accordingly”.

Q: What about the “xenograft pathology (tumor histology)” value [6] of the same substance?
A: The value was “patches of collagenous connective tissues replacing tumor and necropurulent, ulcerative changes”.

Q: And the “effect on in vivo tumor growth” value ([6]; daily ip dose 20 mg/kg)?
A: Its value is “significant inhibitory effect”.

Q: What about the “Ratio (%) of % T:C with oligo to % T:C without oligo ([2]/[1] or [3]/[1])” value ([6]; day 3) of the same substance?
A: Its value is 51%.

Q: What about the “Growth ratio % T:C (mean tumor mass of treated group vs saline control)” value [6, 7] of the same substance?
A: The value was 50.9%.

Q: What about the “Ratio (%) of % T:C with oligo to % T:C without oligo ([2]/[1] or [3]/[1])” value ([6]; day 6) of the same substance?
A: The value was 44%.

Q: What about the “Growth ratio % T:C (mean tumor mass of treated group vs saline control)” value [6, 8] of the same substance?
A: The value was 44.1%.

Q: And the “Ratio (%) of % T:C with oligo to % T:C without oligo ([2]/[1] or [3]/[1])” value ([6]; day 9)?
A: The value was 30%.

Q: What about the “Growth ratio % T:C (mean tumor mass of treated group vs saline control)” value [6, 9] of the same substance?
A: Its value is 29.9%.

Q: What about the “Ratio (%) of % T:C with oligo to % T:C without oligo ([2]/[1] or [3]/[1])” value ([6]; day 12) of the same substance?
A: The value was 34%.

Q: What about the “Growth ratio % T:C (mean tumor mass of treated group vs saline control)” value [6, 10] of the same substance?
A: Its value is 34.3%.

Q: And the “Ratio (%) of % T:C with oligo to % T:C without oligo ([2]/[1] or [3]/[1])” value ([6]; day 15)?
A: Its value is 45%.

Q: What about the “Growth ratio % T:C (mean tumor mass of treated group vs saline control)” value [6, 11] of the same substance?
A: Its value is 45.2%.

Q: What about the “Ratio (%) of % T:C with oligo to % T:C without oligo ([2]/[1] or [3]/[1])” value ([6]; day 18) of the same substance?
A: Its value is 37%.

Q: What about the “Growth ratio % T:C (mean tumor mass of treated group vs saline control)” value ([6]; day 18 (end of experiment), oligo 20, HCPT 3, 5-FU 10 mg/kg/day) of the same substance?
A: The value was 37.3%.
